Source: patent US12448366B2, “Solid forms of pralsetinib” (Rigel Pharmaceuticals, Inc., priority 2020, dated 2025)
Converted amounts (≈) assume the structure as drawn. Like-named read-outs stand apart in the source and are kept apart here.

Columns and labels:
[1] = Qualitative water solubility of salts (salt screen); assay type: physicochemical
[2] = Salt screening: XRPD of wet cake, after drying under vacuum at 50° C., after exposure to 97% relative humidity; assay type: physicochemical; conditions: XRPD; for stability of salt solid form to humidification: 97% (>95%) relative humidity; for stability of salt solid form to drying: vacuum at 50° C.
Protocol: Stock solutions of counter-ion were prepared in EtOH, MeOH, or EtOAc, depending on solubility. […] The solvent was allowed to evaporate at room temperature over the weekend and then placed at 50° C. under vacuum for 3 hours to remove any remaining solvent. Approximately 25 volumes solvent (0.6 mL) was added to each vial for screening. The three solvents selected were EtOH, EtOAc, and IPA:water (9:1 vol). […] XRPD analysis was done in three stages. XRPD of the wet cake was done for all samples. Unique solids were then left on XRPD plates and dried under vacuum at 50° C. XRPD of unique dry solids was then done. […] The humid environment was generated by placing a beaker of saturated potassium sulfate in water in a sealed container. All XRPD patterns were compared to counter ion XRPD patterns and known free base patterns. Where solids were not of sufficient quantity to isolate, the solvent was evaporated at room temperature, the material dried at 50° C. under active vacuum for 3 hours, and then reslurried at room temperature in either MtBE or IPAc overnight after heating to 45° C. for 30 minutes.

[3] = Solubility in water and simulated fluids (fasted/fed state simulated intestinal fluid, fasted state simulated gastric fluid); assay type: physicochemical
[4] = DSC and TGA/DSC thermal analysis; assay type: physicochemical
Protocol: Differential scanning calorimetry was done using a Mettler Toledo DSC3+. The desired amount of sample is weighed directly in a hermetic aluminum pan with pin-hole. A typical sample mass for is 3-5 mg. A typical temperature range is 30° C. to 300° C. at a heating rate of 10° C. per minute (total time of 27 minutes). Typical parameters for DSC are listed below.
Thermogravimetric analysis and differential scanning calorimetry was done using a Mettler Toledo TGA/DSC3+. The desired amount of sample is weighed directly in a hermetic aluminum pan with pin-hole. A typical sample mass for the measurement is 5-10 mg. A typical temperature range is 30° C. to 300° C. at a heating rate of 10° C. per minute (total time of 27 minutes). Protective and purge gasses are nitrogen (20-30 mL/min and 50-100 mL/min). Typical parameters for DSC/TGA are listed below.
Differential scanning calorimetry was performed using a Mettler Toledo DSC3+. The sample (3-5 mg) was weighed directly in a 40 μL hermetic aluminum pan with pin-hole and analyzed according to the parameters below:
Thermogravimetric analysis and differential scanning calorimetry were performed on the same sample simultaneously using a Mettler Toledo TGA/DSC3+. […] The desired amount of sample (5-10 mg) was weighed directly in a hermetic aluminum pan with pin-hole and analyzed according to the parameters below: […]

[5] = Dynamic vapor sorption (DVS); assay type: physicochemical; conditions: for DVS Mass Change: glutarate and succinate: between 2% and 90% relative humidity; for hygroscopicity (words): DVS; for XRPD / form stability after DVS humidity cycling: XRPD before and after DVS; for total mass change by DVS: between 2% and 95% relative humidity
Protocol: Dynamic Vapor Sorption (DVS) was done using a DVS Intrinsic 1. The sample is loaded into a sample pan and suspended from a microbalance. A typical sample mass for DVS measurement is 25 mg. Nitrogen gas bubbled through distilled water provides the desired relative humidity. A typical measurement comprises the steps: • 1—Equilibrate at 50% RH • 2—50% to 2%. (50%, 40%, 30%, 20%, 10% and 2%) • a. Hold minimum of 5 mins and maximum of 60 minutes at each humidity. The pass criteria is less than 0.002% change • 3—2% to 95% (2%, 10%, 20%, 30%, 40%, 50%, 60%, 70%, 80%, 90%, 95%) • a. Hold minimum of 5 mins and maximum of 60 minutes at each humidity. The pass criteria is less than 0.002% change • 4—95% to 2% (95%, 80%, 70%, 60%, 50%, 40%, 30%, 20%, 10%, 2%) • a. Hold minimum of 5 mins and maximum of 60 minutes at each humidity. The pass criteria is less than 0.002% change • 5—2% to 50% (2%, 10%, 20%, 30%, 40%, 50%) • a. Hold minimum of 5 mins and maximum of 60 minutes at each humidity. The pass criteria is less than 0.002% change High Pressure Liquid Chromatography (HPLC)
Dynamic Vapor Sorption (DVS) was performed using a DVS Intrinsic 1. The samples (12-31 mg) was loaded into a sample pan, suspended from a microbalance and exposed to a humidified stream of nitrogen gas. The sample was held for a minimum of 5 min at each level and only progressed to the next humidity level if there was <0.002% change in weight between measurements (interval: 60 seconds) or 240 min had elapsed. The following program was used: • 1—Equilibration at 50% RH • 2—50% to 2%. (50%, 40%, 30%, 20%, 10% and 2%) • 3—2% to 95% (2%, 10%, 20%, 30%, 40%, 50%, 60%, 70%, 80%, 90%, 95%) • 4—95% to 2% (95%, 80%, 70%, 60%, 50%, 40%, 30%, 20%, 10%, 2%) • 5—2% to 50% (2%, 10%, 20%, 30%, 40%, 50%) High Performance Liquid Chromatography (HPLC)

[6] = One week (7 days) slurry stability by XRPD and HPLC; assay type: physicochemical; conditions: XRPD and HPLC, listed as solid form 11-A
[7] = Humidity exposure, 75% relative humidity at 40° C. for one week, XRPD; assay type: physicochemical; conditions: for Stability 40° C./75% RH: XRPD pattern after exposure; for stability on exposure to 75% relative humidity at 40° C.: one week / 7 days, XRPD
RET = conditions: patients with RET-altered NSCLC and MTC; cited from earlier work
[8] = Competitive slurry experiments between free base solid forms; assay type: physicochemical; conditions: for competitive slurry in methanol:water: high ratios of water to methanol and lower temperatures
[9] = Thermal treatment in DSC followed by XRPD (Example 2G); assay type: physicochemical
Description: Select solids were used for thermal treatment in DSC. Solids were heated to specified temperature and then cooled back to room temperature for analysis by XRPD.

CO[C@]1(C(=O)N[C@@H](C)c2ccc(-n3cc(F)cn3)nc2)CC[C@H](c2nc(C)cc(Nc3cc(C)[nH]n3)n2)CC1 [Solid Form 12-A, pralsetinib]
qualitative water solubility [1]: low | stability of salt solid form to humidification ([2]; listed as Pattern 12-A): stable | stability of salt solid form to drying ([2]; listed as Pattern 12-A): stable

CO[C@]1(C(=O)N[C@@H](C)c2ccc(-n3cc(F)cn3)nc2)CC[C@H](c2nc(C)cc(Nc3cc(C)[nH]n3)n2)CC1 [Solid Form 11-A, pralsetinib]
solubility ([3]; water, room temperature, read-out: water solubility at room temperature): 240 µg/mL (≈ 450 µM) | Endotherm Onset ([4]; listed as Glutarate 11-A): 177.8 °C | stability of salt solid form to humidification ([2]; listed as Pattern 11-A): stable | stability of salt solid form to humidification ([2]; listed as glutarate 11-A): stable | stability of salt solid form to humidification ([2]; listed as solid form 11-A): stable | stability of salt solid form to drying ([2]; listed as Pattern 11-A): stable | stability of salt solid form to drying ([2]; listed as glutarate 11-A): stable | stability of salt solid form to drying ([2]; listed as solid form 11-A): stable | mass change by DVS ([5]; between 2% and 90% relative humidity, listed as solid form 11-A): 0.48 wt. % | mass change by DVS ([5]; between 15% and 75% relative humidity, listed as solid form 11-A): 0.27 wt. % | DVS Mass Change ([5]; listed as Glutarate 11-A): 0.48 wt. % | reversibility of the DVS mass change ([5]; listed as solid form 11-A): appears to be reversible | stability slurrying 7 days in EtOAc ([6]; EtOAc): converted to a solid form designated as solid form 11-B | stability slurrying 7 days in EtOH ([6]; EtOH): converted to a solid form designated as solid form 11-B | Stability 40° C./75% RH ([7]; listed as Glutarate 11-A): Stable

CO[C@]1(C(=O)N[C@@H](C)c2ccc(-n3cc(F)cn3)nc2)CC[C@H](c2nc(C)cc(Nc3cc(C)[nH]n3)n2)CC1 [Compound (I), (cis)-N-((S)-1-(6-(4-fluoro-1H-pyrazol-1-yl)pyridin-3-yl)ethyl)-1-methoxy-4-(4 methyl-6-(5-methyl-1H-pyrazol-3-ylamino)pyrimidin-2-yl)cyclohexanecarboxamide]
RET signaling (RET): attenuated | clinical responses (RET): durable clinical responses | off target toxicity (RET): without notable off target toxicity

CO[C@]1(C(=O)N[C@@H](C)c2ccc(-n3cc(F)cn3)nc2)CC[C@H](c2nc(C)cc(Nc3cc(C)[nH]n3)n2)CC1 [Solid Form 10-A, pralsetinib]
qualitative water solubility ([1]; listed as salicylate 10-A): low solubility | stability of salt solid form to humidification ([2]; listed as 10-A): stable | stability of salt solid form to drying ([2]; listed as 10-A): stable

CO[C@]1(C(=O)N[C@@H](C)c2ccc(-n3cc(F)cn3)nc2)CC[C@H](c2nc(C)cc(Nc3cc(C)[nH]n3)n2)CC1 [Solid Form A, pralsetinib]
solubility in simulated gastric fluid [3]: high solubility | solubility in simulated intestinal fluid [3]: low solubility | solubility in water [3]: low solubility | competitive slurry in methanol:water [8]: converted to Solid Form C | competitive slurry in methanol:water ([8]; listed as Pattern A): converted to a praletinib free base material characterized by XRPD Pattern C | Competitive slurry MeOH: water (1:1 vol) at 23 and 50° C. ([8]; listed as Pattern A): A converts to C | Competitive slurry isopropanol, MeOH:MtBE ([8]; listed as Pattern A): A stable | reversibility of the DVS mass change [5]: reversible | share of the DVS mass change occurring above 70% relative humidity [5]: 80% | share of the DVS mass change occurring above 80% relative humidity [5]: 70% | hygroscopicity (words) [5]: hygroscopic | hygroscopicity (words) ([5]; listed as solid form A): hygroscopic | DVS Water Mass Change (wt. %) ([5]; Table 3E, listed as Pattern A): 10.2 wt. % | XRPD / form stability after DVS humidity cycling [5]: stable | XRPD / form stability after DVS humidity cycling ([5]; listed as solid form A): Pattern A | total mass change by DVS [5]: 10.2 wt. % | reversible mass change by DVS ([5]; between 2-95% relative humidity): about 10% | water mass gained by dynamic vapor sorption ([5]; between 2 and 95% relative humidity at 25° C.): 10% | water pick-up ([5]; between 15 to 75% relative humidity): about 2% | solid form after a hold at the melting point [9]: did not convert to material with XRPD Pattern H | conversion to hydrate Solid Form C on prolonged / high humidity exposure [7]: did not convert to Solid Form C | stability on exposure to 75% relative humidity at 40° C. [7]: stable | stability on exposure to 75% relative humidity at 40° C. ([7]; listed as Pattern A): remained unchanged

CO[C@]1(C(=O)N[C@@H](C)c2ccc(-n3cc(F)cn3)nc2)CC[C@H](c2nc(C)cc(Nc3cc(C)[nH]n3)n2)CC1 [freebase (Pattern FB-A)]
Endotherm Onset, event marked (exo) ([4]; exotherm): 162.7 (exo) ° C. | DVS Mass Change [5]: 10.2 wt. % | Stability 40° C./75% RH [7]: Stable

CO[C@]1(C(=O)N[C@@H](C)c2ccc(-n3cc(F)cn3)nc2)CC[C@H](c2nc(C)cc(Nc3cc(C)[nH]n3)n2)CC1 [Solid Form B, pralsetinib]
total mass change by DVS [5]: 1.4 wt. % | solid form after heating to 190° C. ([9]; 190° C.): converted to solid form A | conversion to hydrate Solid Form C on prolonged / high humidity exposure ([7]; listed as Pattern B): not observed to convert back to hydrate XRPD Pattern C | stability on exposure to 75% relative humidity at 40° C. ([7]; listed as Pattern B): remained unchanged

CO[C@]1(C(=O)N[C@@H](C)c2ccc(-n3cc(F)cn3)nc2)CC[C@H](c2nc(C)cc(Nc3cc(C)[nH]n3)n2)CC1 [Solid Form F, pralsetinib]
solid form after heating to 140° C. ([9]; 140° C.): converted to solid form B
